Assay results: patent publication US8329710B2, “Metformin folate and preparation of the same” (Sino-Us Pficker Pharmaceuticals Co., priority 2006, dated 2012)
Counter-ions that a name gives are not always drawn.

Assays:
[1] = tested on: diabetic mice induced by streptozotocin; test: Animal test: homocysteine concentration in blood of streptozotocin-induced diabetic mice, 10 days; type: in vivo; settings: metformin hydrochloride 100 mg/kg body weight
Experimental: (§1) The female mice were induced to diabetic mice by streptozotocin (body weight […]), 6 animals in one group. The data in the table below represented the average of the values of six mice. Normal healthy mice were used as control group 1, control group 2, and control group 3. Control group 1 was administered folacin-metformin (350 mg/kg body weight), control group 2 was administered metformin hydrochloride (100 mg/kg body weight), and control group 3 was administered normal saline. Diabetic mice were divided into three groups, each group was fed folacin-metformin (350 mg/kg body weight), metformin hydrochloride (100 mg/kg body weight) and normal saline, separately. The test lasted for 10 days, and the blood glucose levels and the homocysteine concentrations were detected for all the mice by the end of the test.
(§2) On day 10 of the test, test mice were anaesthetized by i.p. injection of 65 mg/kg body weight of sodium pentobarbital, then collected blood sample from the abdominal aorta. Blood glucose levels were determined by a standard protocol (Methods of Enzymatic Analysis, Vol. 3, 2nd ed. Verlag Chemie International, 1981, p1196-1201), and the homocysteine concentrations in the blood samples were determined using high performance liquid chromatograph according to the literature (Eur. J. Clin. Chem. Clin. Biochem. 1991, 29, 549-554).

[2] = tested on: diabetic mice induced by streptozotocin; test: Animal test: blood glucose level in streptozotocin-induced diabetic mice, 10 days; type: in vivo; settings: for capacity of lowering blood glucose, folacin-metformin compared with metformin hydrochloride (in words): diabetic mice, 10 days, 350 mg/kg vs 100 mg/kg body weight; for blood glucose level, After use: streptozotocin diabetic mice, day 10, folacin-metformin 350 mg/kg body weight, metformin hydrochloride 100 mg/kg body weight, mean of 6 mice
Experimental: as §1, §2

normal healthy mice [3] = test: Animal test: blood glucose level in normal healthy mice (control groups), 10 days; type: in vivo; settings: for blood glucose level, After use: normal healthy mice, day 10, folacin-metformin 350 mg/kg body weight, metformin hydrochloride 100 mg/kg body weight, mean of 6 mice
Experimental: as §1, §2

normal healthy mice [4] = test: Animal test: homocysteine concentration in blood of normal healthy mice (control groups), 10 days; type: in vivo; settings: metformin hydrochloride 100 mg/kg body weight
Experimental: as §1, §2

[5] = after long-term use, recent clinical application; cited from earlier work

SMILES | increase of the homocysteine concentration while lowering the blood glucose (in words) ([1]; diabetic mice, 10 days, folacin-metformin 350 mg/kg) | homocystein concentration, After use ([1]; streptozotocin diabetic mice, day 10, folacin-metformin 350 mg/kg body weight, mean of 6 mice) [µmol/L] | capacity of lowering blood glucose, folacin-metformin compared with metformin hydrochloride (in words) [2] | blood glucose level, After use [2] [mmol/L] | effect on the blood glucose level (in words) (normal healthy mice [3]; healthy mice, 10 days, 350 mg/kg body weight) | blood glucose level, After use (normal healthy mice [3]) [mmol/L] | effect on the blood homocysteine concentration (in words) (normal healthy mice [4]; healthy mice, 10 days, folacin-metformin 350 mg/kg) | homocystein concentration, After use (normal healthy mice [4]; normal healthy mice, day 10, folacin-metformin 350 mg/kg body weight, mean of 6 mice) [µmol/L] | homocystein concentration in the patient (in words) [5]
CN(C)C(=N)N=C(N)N.Nc1nc2ncc(CNc3ccc(C(=O)N[C@@H](CCC(=O)O)C(=O)O)cc3)nc2c(=O)[nH]1 [folacin-metformin] | does not increase | 8.9 ± 0.9 | no difference | 7.4 ± 1.7 | no effect | 7.2 ± 1.2 | slight lowering effect | 9.3 ± 1.1 | 
CN(C)C(=N)N=C(N)N [metformin hydrochloride, reference compound] |  |  | no difference | 7.6 ± 1.4 |  | 7.4 ± 1.7 |  |  | substantially increased
